In patent publication US20200270309A1, “MALEIMIDE GROUP-MODIFIED ANGIOGENESIS INHIBITOR HM-1 AND USE THEREOF” (NANJING ANJI BIOLOGICAL TECHNOLOGY CO., LTD, priority 2017, published 2020):
Marks after values point to notes of the source that are not given here. Peptide text beside a SMILES is read from it. * marks the point of attachment. X58 = O=C1C=CC(=O)N1c1cccc(CCCCCCCCCCCC(=O)*)c1; X74 = O=C1C=CC(=O)N1c1cccc(CCCCCCCCCCC(=O)*)c1; X59 = O=C1C=CC(=O)N1c1cccc(CCCCCCCCC(=O)*)c1; X66 = O=C1C=CC(=O)N1c1cccc(CCCCCCCC(=O)*)c1; X54 = O=C1C=CC(=O)N1c1cccc(CCCCCCC(=O)*)c1; X71 = O=C1C=CC(=O)N1c1cccc(CCCCCC(=O)*)c1; X61 = O=C1C=CC(=O)N1c1cccc(CCCC(=O)*)c1

What was measured:
splenic lymphocytes = assay: Proliferation of splenic lymphocytes in mice (ConA, MTT); type: cell-based; details: ConA-stimulated mouse splenic lymphocytes, 48 h
Procedure, shortened: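 Proliferation read as OD 570 nm after 4 h MTT and DMSO solubilisation, five parallel wells. Before that, ConA-stimulated splenic lymphocytes from mice, 5×10^6 cells/mL in 10% calf serum RPMI 1640, were cultured 48 h at 37° C. with different peptide concentrations; controls were blank, ConA alone and dexamethasone.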

[1] = tested on: collagen-induced arthritis; assay: Mouse collagen-induced arthritis (CIA) animal model; type: in vivo; details: DBA/1 mice CIA model, dose 4.0 mg/kg, subcutaneous from day 30, n=10; for Clinical score: highest score 16
adjuvant arthritis = assay: Rat adjuvant arthritis (AA) animal model; type: in vivo, SD rats; details: 4.0 mg/kg; for Clinical score: intravenous in the tail once every five days from day 10, four paws scored 0-4, max 16, mean±SD; for Joint swelling degree / Left and right paw swelling degree: intravenous in the tail once every five days from day 10, mean±SD
[2] = tested on: human retinal capillary endothelial cells (HRCECs); assay: MTT proliferation inhibition on HRCECs; type: cell-based; details: 48 h; for A570 nm-A630 nm: mean±SD
Procedure, shortened: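 HRCECs seeded at 3.0×10^4 cells/mL, adhered overnight, then exposed to polypeptide for 48 h at 37 °C, 5% CO2. MTT added 4 h, formazan dissolved in DMSO, absorbance 570/630 nm; PIR (%) = 1 − treated/negative control, mean±SD of three independent runs.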

[3] = tested on: retinal vascular endothelial nuclei; assay: Neovascularization in a rat model of premature retinopathy; type: in vivo, rats; details: dose 0.05 μM in the vitreous chamber from day 7 of modeling for one week; counted on day 14; oxygen-induced neonatal rats
Procedure, shortened: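 Newborn rats kept 7 d in chamber alternating 80% and 10% O2 every 24 h (23 °C), then room air. Intravitreal injection of test agents on day 7, saline for model and control; eyes taken day 14, HE-stained 4 μm sections. Endothelial nuclei breaching retinal inner limiting membrane counted, averaged per section per eye (10 sections).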

| SMILES | A570 nm/A630 nm (splenic lymphocytes; polypeptide dose 0.05 μM) | Inhibition rate (%) (splenic lymphocytes; polypeptide dose 0.05 μM) | A570 nm/A630 nm (splenic lymphocytes; polypeptide dose 0.1 μM) | Inhibition rate (%) (splenic lymphocytes; polypeptide dose 0.1 μM) | A570 nm/A630 nm (splenic lymphocytes; polypeptide dose 0.2 μM) | Inhibition rate (%) (splenic lymphocytes; polypeptide dose 0.2 μM) | Joint swelling degree (mm) [1] [mm] | Left and right paw swelling degree (mm) [1] [mm] | Clinical score [1] | Clinical score (adjuvant arthritis) | Joint swelling degree (adjuvant arthritis) [mm] | Left and right paw swelling degree (adjuvant arthritis) [mm] | Inhibition rate (%) ([2]; dose 0.05 μM) [%*] | A570 nm-A630 nm ([2]; dose 0.05 μM) | Inhibition rate (%) ([2]; dose 0.1 μM) [%**] | A570 nm-A630 nm ([2]; dose 0.1 μM) | Inhibition rate (%) ([2]; dose 0.2 μM) [%*] | A570 nm-A630 nm ([2]; dose 0.2 μM) | Nuclei count (retinal vascular endothelial nuclei, average per section per eyeball) [3] |
| --- | --- | --- | --- | --- | --- | --- | --- | --- | --- | --- | --- | --- | --- | --- | --- | --- | --- | --- | --- |
| C[C@H](NC(=O)CNC(=O)[C@H](CCCNC(=N)N)NC(=O)CCCc1cccc(N2C(=O)C=CC2=O)c1)C(=O)N[C@@H](CC(=O)O)C(=O)N[C@@H](CCCNC(=N)N)C(=O)N[C@@H](C)C(=O)NCC(=O)NCC(=O)NCC(=O)NCC(=O)N[C@@H](CCCNC(=N)N)C(=O)NCC(=O)N[C@@H](CC(=O)O)C(=O)O [X27] (X61-RGADRAGGGGRGD-OH) | 0.5388 ± 0.0643 | 20.23 | 0.5231 ± 0.0967 | 22.55 | 0.4792 ± 0.0849 | 29.08 | 0.78 ± 0.19 | 0.75 ± 0.13 | 8.75 ± 1.43 | 5.63 ± 1.12 | 0.74 ± 0.17 | 3.86 ± 0.85 | 49.84 | 0.6629 ± 0.02448 | 56.47 | 0.5753 ± 0.02814 | 56.64 | 0.5731 ± 0.04774 | 8.358 ± 1.328 |
| C[C@H](NC(=O)CNC(=O)[C@H](CCCNC(=N)N)NC(=O)CCCCCc1cccc(N2C(=O)C=CC2=O)c1)C(=O)N[C@@H](CC(=O)O)C(=O)N[C@@H](CCCNC(=N)N)C(=O)N[C@@H](C)C(=O)NCC(=O)NCC(=O)NCC(=O)NCC(=O)N[C@@H](CCCNC(=N)N)C(=O)NCC(=O)N[C@@H](CC(=O)O)C(=O)O [X29] (X71-RGADRAGGGGRGD-OH) | 0.5595 ± 0.0932 | 17.16 | 0.5284 ± 0.0661 | 21.76 | 0.5094 ± 0.1191 | 24.58 | 0.81 ± 0.15 | 0.71 ± 0.13 | 8.98 ± 1.44 | 5.72 ± 1.06 | 0.84 ± 0.16 | 3.72 ± 0.80 | 52.67 | 0.6256 ± 0.09549 | 58.02 | 0.5549 ± 0.02011 | 61.03 | 0.5151 ± 0.01135 | 9.533 ± 2.225 |
| C[C@H](NC(=O)CNC(=O)[C@H](CCCNC(=N)N)NC(=O)CCCCCCc1cccc(N2C(=O)C=CC2=O)c1)C(=O)N[C@@H](CC(=O)O)C(=O)N[C@@H](CCCNC(=N)N)C(=O)N[C@@H](C)C(=O)NCC(=O)NCC(=O)NCC(=O)NCC(=O)N[C@@H](CCCNC(=N)N)C(=O)NCC(=O)N[C@@H](CC(=O)O)C(=O)O [X30] (X54-RGADRAGGGGRGD-OH) | 0.5725 ± 0.0671 | 15.24 | 0.4914 ± 0.0652 | 27.24 | 0.4759 ± 0.0702 | 29.54 | 0.83 ± 0.16 | 0.79 ± 0.16 | 8.73 ± 1.29 | 5.73 ± 1.05 | 0.82 ± 0.12 | 3.76 ± 0.64 | 42.46 | 0.7605 ± 0.00513 | 60.14 | 0.5268 ± 0.06831 | 65.82 | 0.4517 ± 0.03378 | 8.256 ± 3.403 |
| C[C@H](NC(=O)CNC(=O)[C@H](CCCNC(=N)N)NC(=O)CCCCCCCc1cccc(N2C(=O)C=CC2=O)c1)C(=O)N[C@@H](CC(=O)O)C(=O)N[C@@H](CCCNC(=N)N)C(=O)N[C@@H](C)C(=O)NCC(=O)NCC(=O)NCC(=O)NCC(=O)N[C@@H](CCCNC(=N)N)C(=O)NCC(=O)N[C@@H](CC(=O)O)C(=O)O [X31] (X66-RGADRAGGGGRGD-OH) | 0.6142 ± 0.0512 | 9.06 | 0.6134 ± 0.1148 | 9.18 | 0.5450 ± 0.0838 | 19.31 | 0.78 ± 0.15 | 0.77 ± 0.15 | 8.75 ± 1.38 | 5.74 ± 1.12 | 0.84 ± 0.12 | 3.72 ± 0.98 | 41.92 | 0.7676 ± 0.04187 | 45.65 | 0.7183 ± 0.03361 | 63.50 | 0.4824 ± 0.04754 | 7.228 ± 3.184 |
| C[C@H](NC(=O)CNC(=O)[C@H](CCCNC(=N)N)NC(=O)CCCCCCCCc1cccc(N2C(=O)C=CC2=O)c1)C(=O)N[C@@H](CC(=O)O)C(=O)N[C@@H](CCCNC(=N)N)C(=O)N[C@@H](C)C(=O)NCC(=O)NCC(=O)NCC(=O)NCC(=O)N[C@@H](CCCNC(=N)N)C(=O)NCC(=O)N[C@@H](CC(=O)O)C(=O)O [X32] (X59-RGADRAGGGGRGD-OH) | 0.6117 ± 0.0672 | 9.43 | 0.5954 ± 0.0678 | 11.84 | 0.5428 ± 0.0408 | 19.63 | 0.81 ± 0.16 | 0.81 ± 0.13 | 9.06 ± 1.26 | 5.81 ± 1.14 | 0.81 ± 0.18 | 3.91 ± 0.64 | 52.91 | 0.6224 ± 0.08338 | 54.38 | 0.6030 ± 0.05575 | 69.51 | 0.4030 ± 0.00097 | 8.394 ± 2.665 |
| C[C@H](NC(=O)CNC(=O)[C@H](CCCNC(=N)N)NC(=O)CCCCCCCCCCc1cccc(N2C(=O)C=CC2=O)c1)C(=O)N[C@@H](CC(=O)O)C(=O)N[C@@H](CCCNC(=N)N)C(=O)N[C@@H](C)C(=O)NCC(=O)NCC(=O)NCC(=O)NCC(=O)N[C@@H](CCCNC(=N)N)C(=O)NCC(=O)N[C@@H](CC(=O)O)C(=O)O [X34] (X74-RGADRAGGGGRGD-OH) | 0.5469 ± 0.0655 | 19.03 | 0.4573 ± 0.1104 | 32.29 | 0.4431 ± 0.1192 | 34.39 | 0.84 ± 0.13 | 0.72 ± 0.15 | 8.8 ± 1.34 | 5.66 ± 1.09 | 0.83 ± 0.17 | 3.84 ± 0.88 | 50.55 | 0.6536 ± 0.08102 | 51.43 | 0.6420 ± 0.08726 | 59.92 | 0.5298 ± 0.07541 | 7.292 ± 3.827 |
| C[C@H](NC(=O)CNC(=O)[C@H](CCCNC(=N)N)NC(=O)CCCCCCCCCCCc1cccc(N2C(=O)C=CC2=O)c1)C(=O)N[C@@H](CC(=O)O)C(=O)N[C@@H](CCCNC(=N)N)C(=O)N[C@@H](C)C(=O)NCC(=O)NCC(=O)NCC(=O)NCC(=O)N[C@@H](CCCNC(=N)N)C(=O)NCC(=O)N[C@@H](CC(=O)O)C(=O)O [X35] (X58-RGADRAGGGGRGD-OH) | 0.6122 ± 0.1219 | 9.36 | 0.5261 ± 0.0617 | 22.11 | 0.4415 ± 0.0616 | 34.63 | 0.76 ± 0.13 | 0.85 ± 0.14 | 8.78 ± 1.23 | 5.83 ± 1.07 | 0.85 ± 0.13 | 3.78 ± 0.56 | 43.91 | 0.7413 ± 0.08995 | 56.72 | 0.5720 ± 0.01284 | 57.45 | 0.5624 ± 0.01279 | 8.544 ± 3.087 |
